Laboratory results taken from US20260217697A1, “COMPOUNDS COMPRISING HETEROARYL RINGS AND COMPOSITIONS AND METHODS THEREOF” (lonGen Therapeutics Co., Ltd., priority 2022, published 2026).

Biological target: T1, hTRPV3 (Homo sapiens, UniProt Q8NET8)
T1 construct: The commercially available plasmid with the full-length cDNA of hTRPV3 (791 aa) (NM_001258205.2); host or cells: HEK293T
T1 sequence (Q8NET8 1-791 isoform Q8NET8-2): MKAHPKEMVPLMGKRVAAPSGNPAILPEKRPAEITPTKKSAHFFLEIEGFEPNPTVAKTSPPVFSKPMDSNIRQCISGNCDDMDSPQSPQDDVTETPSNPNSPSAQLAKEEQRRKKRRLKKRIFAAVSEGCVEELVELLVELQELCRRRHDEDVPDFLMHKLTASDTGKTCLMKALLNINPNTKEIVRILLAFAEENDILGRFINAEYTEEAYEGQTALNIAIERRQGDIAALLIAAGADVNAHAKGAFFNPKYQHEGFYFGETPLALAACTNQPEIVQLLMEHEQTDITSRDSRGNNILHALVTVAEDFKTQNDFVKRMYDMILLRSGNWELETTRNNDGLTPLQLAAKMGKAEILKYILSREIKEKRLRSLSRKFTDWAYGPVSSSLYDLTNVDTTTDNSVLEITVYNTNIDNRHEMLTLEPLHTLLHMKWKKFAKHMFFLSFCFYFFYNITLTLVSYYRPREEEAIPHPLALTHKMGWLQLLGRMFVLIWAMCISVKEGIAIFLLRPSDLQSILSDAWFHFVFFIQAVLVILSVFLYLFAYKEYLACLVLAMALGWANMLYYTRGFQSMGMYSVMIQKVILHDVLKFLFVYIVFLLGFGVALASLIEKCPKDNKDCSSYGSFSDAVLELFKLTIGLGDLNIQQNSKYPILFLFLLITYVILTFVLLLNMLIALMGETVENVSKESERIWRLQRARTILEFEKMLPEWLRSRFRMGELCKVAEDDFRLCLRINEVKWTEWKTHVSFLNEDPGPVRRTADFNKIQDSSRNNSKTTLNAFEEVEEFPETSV
Experiment: Whole-cell patch-clamp recording of hTRPV3 current in transfected HEK293T cells (2-APB induced)
Type: cell-based
Settings: current induced by 300 μM 2-APB, compounds tested up to 10 μM, room temperature
How it was run: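 IC50 comes from Hill fits, 0–100% bounds, of percent block of 2-APB-induced current, with compounds perfused at up to 10 μM. Currents elicited at +80/−80 mV (400-ms steps, 2-s interval, 0 mV hold), room temperature, symmetric NaCl/EDTA/HEPES pH 7.4 solutions. Cells: hTRPV3-transfected HEK293T, used 18 h after transfection.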

SMILES	IC50
CCOC(=O)[C@H]1CC[C@@]2(CC1)Oc1cc(Br)ccc1-c1nc(NC(=O)c3c(OC)ncnc3OC)sc12 [compound 129]	100 to 1000 nM
CCOC(=O)[C@H]1CC[C@@]2(CC1)Oc1cc(C(C)C)ccc1-c1nc(NC(=O)c3c(OC)ncnc3OC)sc12 [compound 130]	1000 to 10000 nM
COc1ncnc(OC)c1C(=O)Nc1nc2c(s1)C1(CC(NC(=O)OC(C)(C)C)C1)Oc1cc(C(F)(F)F)ccc1-2 (stereo not drawn) [compound 131, tert-butyl(2-(4,6-dimethoxypyrimidine-5-carboxamido)-7-(trifluoromethyl)spiro[chromeno[4,3-d]thiazole-4,1′-cyclobutan]-3′-yl)carbamate]	100 to 1000 nM
COc1ncnc(OC)c1C(=O)Nc1nc2c(s1)C1(CN(C(=O)OC(C)(C)C)C1)Oc1cc(C(C)C)ccc1-2 [compound 132, tert-butyl 2′-(4,6-dimethoxypyrimidine-5-carboxamido)-7′-isopropylspiro[azetidine-3,4′-chromeno[4,3-d]thiazole]-1-carboxylate]	100 to 1000 nM
COc1ncnc(OC)c1C(=O)Nc1nc2c(s1)C1(COC1)Oc1cc(Br)ccc1-2 [compound 134, N-(7-bromospiro[chromeno[4,3-d]thiazole-4,3′-oxetan]-2-yl)-4,6-dimethoxypyrimidine-5-carboxamide]	100 to 1000 nM
COc1ncnc(OC)c1C(=O)Nc1nc2c(s1)C1(COC1)Oc1cc(C(C)C)ccc1-2 [compound 135, N-(7-isopropylspiro[chromeno[4,3-d]thiazole-4,3′-oxetan]-2-yl)-4,6-dimethoxypyrimidine-5-carboxamide]	< 100 nM
COc1ncnc(OC)c1C(=O)Nc1nc2c(s1)C1(CN(C(C)C)C1)Oc1cc(C(F)(F)F)ccc1-2 [compound 136, N-(1-isopropyl-7′-(trifluoromethyl)spiro[azetidine-3,4′-chromeno[4,3-d]thiazol]-2′-yl)-4,6-dimethoxypyrimidine-5-carboxamide]	< 100 nM
COc1ncnc(OC)c1C(=O)Nc1nc2c(s1)C1(COC1)Oc1cc(C3CC3)ccc1-2 [compound 138, N-(7-cyclopropylspiro[chromeno[4,3-d]thiazole-4,3′-oxetan]-2-yl)-4,6-dimethoxypyrimidine-5-carboxamide]	100 to 1000 nM
COc1ncnc(OC)c1C(=O)Nc1nc2c(s1)C1(COC1)Oc1cc(C(C)(C)O)ccc1-2 [compound 139, N-(7-(2-hydroxypropan-2-yl)spiro[chromeno[4,3-d]thiazole-4,3′-oxetan]-2-yl)-4,6-dimethoxypyrimidine-5-carboxamide]	≥ 10000 nM
COc1ncnc(OC)c1C(=O)Nc1nc2c(s1)-c1ccc(C(F)(F)F)cc1OC21CCS(=O)(=O)CC1 [compound 141, N-(1′,1′-dioxido-7-(trifluoromethyl)-2′,3′,5′,6′-tetrahydrospiro[chromeno[3,4-d]thiazole-4,4′-thiopyran]-2-yl)-4,6-dimethoxypyrimidine-5-carboxamide]	1000 to 10000 nM
COc1ncnc(OC)c1C(=O)Nc1nc2c(s1)C1(CN(C(C)C)C1)Oc1cc(C#N)ccc1-2 [compound 148, N-(7′-cyano-1-isopropylspiro[azetidine-3,4′-chromeno[4,3-d]thiazol]-2′-yl)-4,6-dimethoxypyrimidine-5-carboxamide]	100 to 1000 nM
COc1ncnc(OC)c1C(=O)Nc1nc2c(s1)C1(CN(C3CC3)C1)Oc1cc(C(F)(F)F)ccc1-2 [compound 149, N-(1-cyclopropyl-7′-(trifluoromethyl)spiro[azetidine-3,4′-chromeno[4,3-d]thiazol]-2′-yl)-4,6-dimethoxypyrimidine-5-carboxamide]	< 100 nM

Second part, the compound after the results:

IC50	SMILES
100 to 1000 nM	COc1ncnc(OC)c1C(=O)Nc1nc2c(s1)C1(CCC(C(=O)N(C)C(C)C)CC1)Oc1cc(C(F)(F)F)ccc1-2 (stereo not drawn) [compound 127, 2-(4,6-dimethoxypyrimidine-5-carboxamido)-N-isopropyl-N-methyl-7-(trifluoromethyl)spiro[chromeno[4,3-d]thiazole-4,1′-cyclohexane]-4′-carboxamide]
100 to 1000 nM	CCOC(=O)[C@H]1CC[C@]2(CC1)Oc1cc(Br)ccc1-c1nc(NC(=O)c3c(OC)ncnc3OC)sc12 [compound 128]
< 100 nM	CCOC(=O)C1CC2(C1)Oc1cc(C(F)(F)F)ccc1-c1nc(NC(=O)c3c(OC)ncnc3OC)sc12 (stereo not drawn) [compound 133, ethyl 2-(4,6-dimethoxypyrimidine-5-carboxamido)-7-(trifluoromethyl)spiro[chromeno[4,3-d]thiazole-4,1′-cyclobutane]-3′-carboxylate]
≥ 10000 nM	COc1ncnc(OC)c1C(=O)Nc1nc2c(s1)C1(COC1)Oc1cc(C#N)ccc1-2 [compound 137, N-(7-cyanospiro[chromeno[4,3-d]thiazole-4,3′-oxetan]-2-yl)-4,6-dimethoxypyrimidine-5-carboxamide]
1000 to 10000 nM	COc1ncnc(OC)c1C(=O)Nc1nc2c(s1)C1(COC1)Oc1cc(C(C)(C)C#N)ccc1-2 [compound 140, N-(7-(2-cyanopropan-2-yl)spiro[chromeno[4,3-d]thiazole-4,3′-oxetan]-2-yl)-4,6-dimethoxypyrimidine-5-carboxamide]
≥ 10000 nM	CCC1(CC)Oc2cc(C(F)(F)F)ccc2-c2nc(NC(=O)c3c(OC)cccc3OC)sc21 [compound 142, N-(4,4-diethyl-7-(trifluoromethyl)-4H-chromeno[4,3-d]thiazol-2-yl)-2,6-dimethoxybenzamide]
≥ 10000 nM	CCC1(CC)Oc2cc(C(F)(F)F)ccc2-c2nc(N3CN(C)c4ncnc(OC)c4C3=O)sc21 [compound 143, 3-(4,4-diethyl-7-(trifluoromethyl)-4H-chromeno[4,3-d]thiazol-2-yl)-5-methoxy-1-methyl-2,3-dihydropyrimido[4,5-d]pyrimidin-4 (1H)-one]
≥ 10000 nM	COc1ncnc(O)c1C(=O)Nc1nc2c(s1)C1(COC1)Oc1cc(C(C)C)ccc1-2 [compound 144, 4-hydroxy-N-(7-isopropylspiro[chromeno[4,3-d]thiazole-4,3′-oxetan]-2-yl)-6-methoxypyrimidine-5-carboxamide]
100 to 1000 nM	COc1ncnc(OC)c1C(=O)Nc1nc2c(s1)C1(CN(C(C)C)C1)Oc1cc(C(C)C)ccc1-2 [compound 145, N-(1,7′-diisopropylspiro[azetidine-3,4′-chromeno[4,3-d]thiazol]-2′-yl)-4,6-dimethoxypyrimidine-5-carboxamide]
< 100 nM	COc1ncnc(OC)c1C(=O)Nc1nc2c(s1)C1(CN(C(C)C)C1)Oc1cc(Br)ccc1-2 [compound 146, N-(7′-bromo-1-isopropylspiro[azetidine-3,4′-chromeno[4,3-d]thiazol]-2′-yl)-4,6-dimethoxypyrimidine-5-carboxamide]
1000 to 10000 nM	COc1ncnc(OCCN(C)C)c1C(=O)Nc1nc2c(s1)C1(COC1)Oc1cc(C(C)C)ccc1-2 [compound 147, 4-(2-(dimethylamino)ethoxy)-N-(7-isopropylspiro[chromeno[4,3-d]thiazole-4,3′-oxetan]-2-yl)-6-methoxypyrimidine-5-carboxamide]
< 100 nM	COc1ncnc(OC)c1C(=O)Nc1nc2c(s1)C1(CN(CC(C)C)C1)Oc1cc(C(F)(F)F)ccc1-2 [compound 150, N-(1-isobutyl-7′-(trifluoromethyl)spiro[azetidine-3,4′-chromeno[4,3-d]thiazol]-2′-yl)-4,6-dimethoxypyrimidine-5-carboxamide]
